From ChEMBL document CHEMBL5465560, “Selectivity Literature for EUbOPEN Chemogenomic Library” (2024)

Key:
[1] = biological target: Casein kinase II subunit alpha' (Homo sapiens) (UniProt P19784); assay: Selectivity interaction (KinomeScan (DiscoverX)) EUB0000229b CSNK2A2; conditions: at 10 µM
[2] = biological target: Cyclin-dependent kinase 3 (Homo sapiens) (UniProt Q00526); assay: Selectivity interaction (KinomeScan (DiscoverX)) EUB0000045b CDK3
[3] = biological target: Gastrin/cholecystokinin type B receptor (Homo sapiens) (UniProt P32239); assay: Selectivity interaction (Eurofins CEREP Diversity Profile (receptors and ion channels)) EUB0000279b CCKBR; conditions: at 10 µM
[4] = biological target: T1, MAP kinase-activated protein kinase 5 (Homo sapiens) (UniProt Q8IW41); assay: Selectivity interaction (ProQinase) EUB0000171b MAPKAPK5
T1 sequence (whole entry): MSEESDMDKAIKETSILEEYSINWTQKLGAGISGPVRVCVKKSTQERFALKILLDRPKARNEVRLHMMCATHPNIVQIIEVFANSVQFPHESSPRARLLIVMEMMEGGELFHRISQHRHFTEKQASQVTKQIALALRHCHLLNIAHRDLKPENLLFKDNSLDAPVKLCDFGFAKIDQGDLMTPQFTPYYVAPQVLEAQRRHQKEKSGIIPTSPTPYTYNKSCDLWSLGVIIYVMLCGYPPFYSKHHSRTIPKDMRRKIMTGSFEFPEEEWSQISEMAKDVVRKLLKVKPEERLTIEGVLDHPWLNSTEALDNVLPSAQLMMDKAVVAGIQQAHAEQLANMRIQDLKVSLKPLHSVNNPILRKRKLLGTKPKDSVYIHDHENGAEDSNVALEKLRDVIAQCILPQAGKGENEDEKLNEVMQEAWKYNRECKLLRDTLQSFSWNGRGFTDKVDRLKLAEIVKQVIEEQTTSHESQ

[5] = biological target: T2, Serine/threonine-protein kinase TAO2 (Homo sapiens) (UniProt Q9UL54); assay: Selectivity interaction (KinomeScan (DiscoverX)) EUB0001619a TAOK2; conditions: at 1 µM
T2 sequence (whole entry): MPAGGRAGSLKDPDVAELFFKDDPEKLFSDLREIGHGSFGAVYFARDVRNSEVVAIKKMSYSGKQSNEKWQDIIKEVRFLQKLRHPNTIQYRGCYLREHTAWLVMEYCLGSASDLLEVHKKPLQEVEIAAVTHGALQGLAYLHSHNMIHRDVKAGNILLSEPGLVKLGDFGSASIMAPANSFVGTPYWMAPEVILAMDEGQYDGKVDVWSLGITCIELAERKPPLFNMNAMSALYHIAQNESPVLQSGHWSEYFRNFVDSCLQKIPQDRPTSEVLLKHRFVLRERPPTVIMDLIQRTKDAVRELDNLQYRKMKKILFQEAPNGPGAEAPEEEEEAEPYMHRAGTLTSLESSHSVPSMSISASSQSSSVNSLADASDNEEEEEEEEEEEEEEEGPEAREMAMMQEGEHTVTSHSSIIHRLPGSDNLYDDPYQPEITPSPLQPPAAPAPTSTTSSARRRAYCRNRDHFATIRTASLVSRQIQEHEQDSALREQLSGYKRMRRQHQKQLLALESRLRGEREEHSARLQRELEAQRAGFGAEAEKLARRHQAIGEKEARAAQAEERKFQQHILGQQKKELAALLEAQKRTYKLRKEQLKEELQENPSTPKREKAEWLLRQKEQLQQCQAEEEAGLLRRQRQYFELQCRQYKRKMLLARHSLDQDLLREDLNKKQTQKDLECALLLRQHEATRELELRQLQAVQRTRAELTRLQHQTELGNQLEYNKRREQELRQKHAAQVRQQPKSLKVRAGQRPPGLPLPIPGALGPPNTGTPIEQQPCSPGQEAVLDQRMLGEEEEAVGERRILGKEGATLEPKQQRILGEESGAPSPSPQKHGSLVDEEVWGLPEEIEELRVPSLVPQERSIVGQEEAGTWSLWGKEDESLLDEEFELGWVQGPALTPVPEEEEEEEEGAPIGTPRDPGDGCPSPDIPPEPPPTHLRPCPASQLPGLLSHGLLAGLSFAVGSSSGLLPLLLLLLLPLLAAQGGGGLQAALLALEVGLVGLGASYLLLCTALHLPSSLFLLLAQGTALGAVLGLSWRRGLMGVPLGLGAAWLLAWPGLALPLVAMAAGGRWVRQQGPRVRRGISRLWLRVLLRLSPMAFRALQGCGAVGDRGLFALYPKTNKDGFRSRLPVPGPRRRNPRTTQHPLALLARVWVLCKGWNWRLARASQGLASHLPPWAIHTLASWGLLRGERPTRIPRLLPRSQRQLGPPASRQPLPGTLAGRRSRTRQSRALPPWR

[6] = biological target: T3, Interleukin-1 receptor-associated kinase 4 (Homo sapiens) (UniProt Q9NWZ3); assay: Selectivity interaction (ActivX KiNativ screen (ex vivo kinase selectivity in human PBMCs)) EUB0001619a IRAK4; format: cell-based; conditions: PBMC, at 1 µM
T3 sequence (whole entry): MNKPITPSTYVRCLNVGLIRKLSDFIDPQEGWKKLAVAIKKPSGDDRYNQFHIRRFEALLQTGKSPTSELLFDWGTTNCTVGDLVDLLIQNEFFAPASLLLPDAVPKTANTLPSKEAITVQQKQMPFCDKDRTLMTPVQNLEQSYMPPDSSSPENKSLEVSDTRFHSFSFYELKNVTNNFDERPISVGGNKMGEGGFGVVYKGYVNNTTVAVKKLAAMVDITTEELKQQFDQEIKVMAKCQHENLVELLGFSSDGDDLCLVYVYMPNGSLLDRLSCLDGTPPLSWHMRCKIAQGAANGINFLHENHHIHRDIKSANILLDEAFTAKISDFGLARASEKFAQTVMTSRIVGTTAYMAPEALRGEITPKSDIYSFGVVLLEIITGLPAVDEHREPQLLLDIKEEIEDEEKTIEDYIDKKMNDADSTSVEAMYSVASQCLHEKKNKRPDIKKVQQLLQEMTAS

[7] = biological target: Ribosomal protein S6 kinase alpha-1 (Homo sapiens, UniProt Q15418); assay: Selectivity interaction (ActivX KiNativ screen (ex vivo kinase selectivity in human PBMCs)) EUB0001619a RPS6KA1; format: cell-based; conditions: PBMC, at 1 µM
[8] = test system: Leucine-rich repeat serine/threonine-protein kinase 2 (Homo sapiens), Q5S007 [G2019S]; assay: (§1) Selectivity interaction (KinomeScan (DiscoverX)) EUB0000618a LRRK2; conditions: at 10 µM
[9] = biological target: Leucine-rich repeat serine/threonine-protein kinase 2 (Homo sapiens, UniProt Q5S007); assay: as §1; conditions: at 10 µM
[10] = biological target: Casein kinase I isoform gamma-3 (Homo sapiens) (UniProt Q9Y6M4); assay: Selectivity interaction (Kinase panel (Invitrogen)) EUB0000639a CSNK1G3; conditions: at 200 nM
[11] = biological target: Calcium/calmodulin-dependent protein kinase kinase 2 (Homo sapiens) (UniProt Q96RR4); assay: Selectivity interaction (KinomeScan (DiscoverX)) EUB0000655a CAMKK2; conditions: at 10 µM
Sequence of Calcium/calmodulin-dependent protein kinase kinase 2 (Homo sapiens) (Q96RR4 2-588 limits assumed): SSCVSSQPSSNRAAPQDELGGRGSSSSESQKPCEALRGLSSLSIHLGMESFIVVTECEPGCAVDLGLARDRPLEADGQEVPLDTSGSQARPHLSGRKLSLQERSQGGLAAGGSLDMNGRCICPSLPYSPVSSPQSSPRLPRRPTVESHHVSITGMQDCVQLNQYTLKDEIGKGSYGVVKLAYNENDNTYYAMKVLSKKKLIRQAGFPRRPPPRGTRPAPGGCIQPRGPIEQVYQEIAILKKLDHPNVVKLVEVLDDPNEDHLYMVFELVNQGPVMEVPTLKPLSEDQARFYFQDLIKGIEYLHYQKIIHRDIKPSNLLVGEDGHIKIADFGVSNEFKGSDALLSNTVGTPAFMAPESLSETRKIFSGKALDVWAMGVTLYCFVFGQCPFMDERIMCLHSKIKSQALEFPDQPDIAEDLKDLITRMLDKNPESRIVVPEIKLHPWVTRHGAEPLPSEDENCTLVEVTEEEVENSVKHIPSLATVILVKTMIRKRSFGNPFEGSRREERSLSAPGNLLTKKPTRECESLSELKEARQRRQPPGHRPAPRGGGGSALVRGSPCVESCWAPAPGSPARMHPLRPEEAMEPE

Sequence of Cyclin-dependent kinase 3 (Homo sapiens) (Q00526 whole entry, looked up): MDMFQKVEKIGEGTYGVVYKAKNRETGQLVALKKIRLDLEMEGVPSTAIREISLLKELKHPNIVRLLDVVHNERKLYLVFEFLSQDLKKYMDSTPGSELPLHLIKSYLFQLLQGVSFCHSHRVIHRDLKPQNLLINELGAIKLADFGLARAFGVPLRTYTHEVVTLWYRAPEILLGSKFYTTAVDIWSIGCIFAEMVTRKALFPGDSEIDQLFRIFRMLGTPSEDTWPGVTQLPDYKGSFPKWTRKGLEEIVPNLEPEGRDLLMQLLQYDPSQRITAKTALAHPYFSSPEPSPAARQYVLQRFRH
Sequence of Leucine-rich repeat serine/threonine-protein kinase 2 (Q5S007 whole entry, canonical isoform): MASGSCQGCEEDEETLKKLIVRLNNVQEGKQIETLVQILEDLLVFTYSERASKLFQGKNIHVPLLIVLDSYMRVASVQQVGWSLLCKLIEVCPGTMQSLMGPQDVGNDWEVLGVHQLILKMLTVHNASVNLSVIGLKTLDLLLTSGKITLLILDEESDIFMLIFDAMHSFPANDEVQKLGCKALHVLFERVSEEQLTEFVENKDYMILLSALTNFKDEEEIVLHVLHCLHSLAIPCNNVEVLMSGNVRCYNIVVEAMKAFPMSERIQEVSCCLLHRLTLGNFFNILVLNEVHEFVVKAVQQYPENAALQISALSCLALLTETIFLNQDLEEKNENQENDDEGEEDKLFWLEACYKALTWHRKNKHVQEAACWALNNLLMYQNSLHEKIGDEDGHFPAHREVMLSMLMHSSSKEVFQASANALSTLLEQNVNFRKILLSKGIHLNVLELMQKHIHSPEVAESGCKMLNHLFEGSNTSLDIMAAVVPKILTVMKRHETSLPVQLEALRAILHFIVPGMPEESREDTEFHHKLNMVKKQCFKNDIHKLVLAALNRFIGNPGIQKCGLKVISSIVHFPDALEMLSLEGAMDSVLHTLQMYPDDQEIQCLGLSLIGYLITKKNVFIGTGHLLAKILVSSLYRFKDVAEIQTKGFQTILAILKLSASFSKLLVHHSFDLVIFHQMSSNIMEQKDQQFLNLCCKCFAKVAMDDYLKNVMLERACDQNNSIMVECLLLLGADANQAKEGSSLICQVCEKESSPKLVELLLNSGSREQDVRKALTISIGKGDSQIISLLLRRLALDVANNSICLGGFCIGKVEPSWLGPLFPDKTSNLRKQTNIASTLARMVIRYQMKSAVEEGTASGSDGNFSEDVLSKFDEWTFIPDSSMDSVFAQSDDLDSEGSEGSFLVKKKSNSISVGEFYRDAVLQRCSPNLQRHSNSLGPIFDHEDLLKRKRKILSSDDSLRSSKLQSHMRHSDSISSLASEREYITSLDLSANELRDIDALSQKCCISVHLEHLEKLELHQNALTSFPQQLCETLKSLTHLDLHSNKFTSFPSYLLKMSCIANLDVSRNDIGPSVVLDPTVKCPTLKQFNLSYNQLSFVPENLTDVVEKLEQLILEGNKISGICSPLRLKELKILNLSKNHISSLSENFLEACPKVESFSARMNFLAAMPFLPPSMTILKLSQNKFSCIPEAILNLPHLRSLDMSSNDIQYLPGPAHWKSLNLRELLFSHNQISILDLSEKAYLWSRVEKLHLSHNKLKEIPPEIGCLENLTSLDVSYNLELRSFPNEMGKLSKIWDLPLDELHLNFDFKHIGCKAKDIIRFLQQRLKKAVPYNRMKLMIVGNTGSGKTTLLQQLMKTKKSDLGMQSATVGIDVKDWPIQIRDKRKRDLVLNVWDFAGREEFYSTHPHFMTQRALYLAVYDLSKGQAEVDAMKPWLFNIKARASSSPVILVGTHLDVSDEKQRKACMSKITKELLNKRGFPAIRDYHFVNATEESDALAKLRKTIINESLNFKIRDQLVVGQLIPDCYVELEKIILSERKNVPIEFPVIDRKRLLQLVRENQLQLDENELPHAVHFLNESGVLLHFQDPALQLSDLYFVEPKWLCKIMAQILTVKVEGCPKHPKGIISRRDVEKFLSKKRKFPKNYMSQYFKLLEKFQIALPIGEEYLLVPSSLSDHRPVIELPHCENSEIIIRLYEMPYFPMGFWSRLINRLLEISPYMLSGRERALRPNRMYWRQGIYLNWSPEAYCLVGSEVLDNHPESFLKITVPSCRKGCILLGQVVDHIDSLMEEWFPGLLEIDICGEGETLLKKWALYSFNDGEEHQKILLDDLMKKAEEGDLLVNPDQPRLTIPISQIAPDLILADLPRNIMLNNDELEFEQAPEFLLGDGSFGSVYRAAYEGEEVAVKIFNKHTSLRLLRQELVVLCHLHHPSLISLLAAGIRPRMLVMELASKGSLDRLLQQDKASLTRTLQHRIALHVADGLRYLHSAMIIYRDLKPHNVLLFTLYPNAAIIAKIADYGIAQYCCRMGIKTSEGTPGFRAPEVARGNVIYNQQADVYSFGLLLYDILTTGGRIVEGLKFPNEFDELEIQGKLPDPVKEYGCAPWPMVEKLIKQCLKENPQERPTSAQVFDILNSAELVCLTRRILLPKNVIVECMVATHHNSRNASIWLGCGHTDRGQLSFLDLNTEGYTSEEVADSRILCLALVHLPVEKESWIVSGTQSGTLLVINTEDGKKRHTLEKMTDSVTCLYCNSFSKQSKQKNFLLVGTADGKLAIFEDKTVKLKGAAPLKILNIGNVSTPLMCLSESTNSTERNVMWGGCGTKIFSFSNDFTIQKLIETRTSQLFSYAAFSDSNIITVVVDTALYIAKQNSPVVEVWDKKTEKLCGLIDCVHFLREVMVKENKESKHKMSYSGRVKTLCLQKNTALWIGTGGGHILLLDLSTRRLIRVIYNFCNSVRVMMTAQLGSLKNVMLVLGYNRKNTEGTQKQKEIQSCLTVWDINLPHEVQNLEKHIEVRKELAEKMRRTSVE
Sequence of Leucine-rich repeat serine/threonine-protein kinase 2 (Homo sapiens), Q5S007 [G2019S] (Q5S007 whole entry G2019S): as the sequence (Q5S007 whole entry, canonical isoform) above, with G2019S counted along it
Sequence of Casein kinase I isoform gamma-3 (Homo sapiens) (Q9Y6M4 whole entry, looked up, canonical isoform): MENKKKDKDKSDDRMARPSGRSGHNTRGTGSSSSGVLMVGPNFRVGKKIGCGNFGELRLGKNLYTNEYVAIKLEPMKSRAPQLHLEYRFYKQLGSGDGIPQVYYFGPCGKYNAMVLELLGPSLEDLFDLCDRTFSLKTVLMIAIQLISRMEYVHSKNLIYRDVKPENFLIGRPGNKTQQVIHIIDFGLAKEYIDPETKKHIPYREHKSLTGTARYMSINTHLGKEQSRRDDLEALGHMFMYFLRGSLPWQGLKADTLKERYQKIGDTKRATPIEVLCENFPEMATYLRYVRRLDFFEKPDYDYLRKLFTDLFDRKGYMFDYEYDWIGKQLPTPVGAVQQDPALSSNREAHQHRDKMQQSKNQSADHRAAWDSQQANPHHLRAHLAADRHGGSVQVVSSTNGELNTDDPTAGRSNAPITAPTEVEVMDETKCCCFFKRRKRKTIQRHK
Sequence of Casein kinase II subunit alpha' (Homo sapiens) (P19784 whole entry, looked up): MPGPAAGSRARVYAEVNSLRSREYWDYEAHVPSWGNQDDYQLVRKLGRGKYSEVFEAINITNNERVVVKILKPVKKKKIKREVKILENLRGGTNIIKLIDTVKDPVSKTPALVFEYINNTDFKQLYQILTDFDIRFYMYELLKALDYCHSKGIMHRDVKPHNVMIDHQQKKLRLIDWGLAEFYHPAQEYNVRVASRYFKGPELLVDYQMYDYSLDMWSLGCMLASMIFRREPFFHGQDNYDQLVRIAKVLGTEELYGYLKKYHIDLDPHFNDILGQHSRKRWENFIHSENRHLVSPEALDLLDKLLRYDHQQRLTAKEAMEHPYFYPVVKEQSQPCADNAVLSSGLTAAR
Sequence of Ribosomal protein S6 kinase alpha-1 (Q15418 whole entry): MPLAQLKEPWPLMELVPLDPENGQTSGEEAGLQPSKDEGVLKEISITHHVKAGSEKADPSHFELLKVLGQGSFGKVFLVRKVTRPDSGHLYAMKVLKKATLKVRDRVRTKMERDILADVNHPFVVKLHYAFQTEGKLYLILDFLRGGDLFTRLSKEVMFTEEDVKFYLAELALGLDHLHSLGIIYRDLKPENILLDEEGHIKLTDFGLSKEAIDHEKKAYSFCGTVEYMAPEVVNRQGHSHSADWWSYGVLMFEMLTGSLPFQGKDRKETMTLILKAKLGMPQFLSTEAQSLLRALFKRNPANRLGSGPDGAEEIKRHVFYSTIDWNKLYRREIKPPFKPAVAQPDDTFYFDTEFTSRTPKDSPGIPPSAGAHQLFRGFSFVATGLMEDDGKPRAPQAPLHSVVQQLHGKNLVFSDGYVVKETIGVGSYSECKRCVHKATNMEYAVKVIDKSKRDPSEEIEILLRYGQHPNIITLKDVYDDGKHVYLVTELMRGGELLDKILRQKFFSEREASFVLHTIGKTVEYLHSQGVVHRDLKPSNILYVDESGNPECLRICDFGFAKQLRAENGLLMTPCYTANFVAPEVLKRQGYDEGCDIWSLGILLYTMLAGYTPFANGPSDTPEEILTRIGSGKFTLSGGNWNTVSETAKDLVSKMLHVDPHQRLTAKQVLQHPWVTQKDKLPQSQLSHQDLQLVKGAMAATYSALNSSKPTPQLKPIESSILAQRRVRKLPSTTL

## COc1cc(N(C)c2ccnc3ccc(C(F)(F)F)cc23)cc(OC)c1OC
[1]
  % binding: 100%

## C=CC(=O)Nc1cc(-n2c(=O)ccc3cnc4ccc(-c5ccc(NS(C)(=O)=O)cc5)cc4c32)ccc1C
[2]; at 1 µM
  % of control: 100%
[2]; at 10 µM
  % of control: 100%

## CC(=O)c1cc(-c2ccccc2OCC2CC2)c2ncccn12
[3]
  % of control: 95%

## C=CC(=O)Nc1cccc(C(=O)Nc2ccc(Nc3cc(-c4[nH]c(SC)nc4C)ccn3)cc2)c1
[4]; at 1 µM
  % of control: 96%
[4]; at 5 µM
  % of control: 97%

## N#Cc1cccc(-c2c[nH]c3ncnc(N4CCOCC4)c23)c1
[5]
  % of control: 100%
[6]
  % of inhibition: 16%
[7]
  % of inhibition: 56%

## O[C@H]1CC[C@H](Nc2ncc3nc(Nc4c(F)cc(F)cc4F)n([C@H]4CCOC4)c3n2)CC1
[8]
  % of control: 95%
[9]
  % of control: 83%

## CC[C@@H]1[C@H](F)C(=O)N[C@@H]1COc1nccc2cc(C(N)=O)c(OC)cc12 [ZIMLOVISERTIB]
[10]
  % of inhibition: 62.9%

## CN(C)CCOc1ccc(-c2nc(-c3ccncc3)c(-c3ccc4c(c3)CC/C4=N\O)[nH]2)cc1
[11]
  % of control: 88%
